Experimental findings from PubChem BioAssay (NCI) are described below.

Each structure is given as a SMILES string.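 The compound was tested at five concentrations on cells cultured in 96-well plates, with a 48-hour exposure period. GI50 marks 50% less growth. The concentration for full growth arrest is given as TGI.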

The subject of one assay is COLO 205 colon. The experiment in a line: DTP human tumour cell line panel, 48 h.
Broadly, the TGI is the concentration at which net growth stops. In turn, `COc1ccc2c(c1)/C(=C\c1c(Cl)nc3sc(C)cn13)C(=O)N2` had a TGI of 9.45 µM.

`O=C1c2ccccc2-c2c1c(-c1ccc(F)cc1)nc1ccc3ccccc3c21` had a TGI greater than 100 µM.

In turn, `O=C(/C=C/c1ccc2c(c1)OCO2)CC(=O)C(=O)c1c[nH]c2ccccc12` yielded a total growth inhibition concentration (TGI) greater than 100 µM.

The compound `O=c1[nH]c(=O)n(C2OC(CO)C(O)C2O)c2nc(-c3ccc(-c4ccccc4)cc3)cnc12` (stereo unspecified) gave a TGI greater than 100 µM.

`O=C1NCCN1/N=C/c1c(Cl)n(-c2ccccc2)c2ccccc12` showed a TGI of 40.5 µM.

Compound `CCCCCCOc1ccc(C(=O)NOC)cc1` showed a TGI greater than 100 µM.

As usually defined, the GI50 is the concentration that inhibits growth by half. Consider `CO[C@H]1/C=C(/C)CCC[C@H](C)[C@H](O)[C@@H](C)C(=O)C(C)(C)[C@@H](O)CC(=O)O[C@@H]1/C(C)=C/c1csc(C)n1`, for which the GI50 is 0.0159 µM and the TGI turned out to be 0.0755 µM.

`CC(=O)Nc1nc(C#N)[nH]c1C#N` registered a TGI greater than 100 µM.

Compound `COc1cc(NS(C)(=O)=O)ccc1Nc1cc(C)[nH]c2ccc3nccc3c12` showed a concentration for total growth inhibition (TGI) greater than 100 µM.

As for `CCOC(=O)Cn1c(=O)c2nc(SC)sc2n(-c2ccccc2)c1=O`, the TGI was greater than 100 µM.

On to `COc1ccc(-c2nc(SCC(=O)N/N=C/c3ccc(N(C)C)cc3)[nH]c2-c2ccc(OC)cc2)cc1`, for which the TGI turned out to be 24.5 µM.

`CC1=C[C@@H]2Cc3nc4cc(Cl)ccc4c(N)c3[C@H](C1)C2` showed a TGI of 2.92 µM.

In the case of `O=[N+]([O-])C(/C=C(\Cl)n1nnc2ccccc21)=C(/Cl)n1nnc2ccccc21`, the TGI is greater than 100 µM.

In turn, `c1c[nH]c(-c2ccc(-c3ccc[nH]3)c3nsnc23)c1` registered a TGI greater than 65.9 µM.

In turn, `CS(=O)(=O)OCC(CCl)(CCl)CCl` showed a total growth inhibition concentration (TGI) greater than 100 µM.

`N#Cc1c(-c2ccccc2)/c(=C\Nc2ccc(F)cc2)c(=O)n2c1nc1ccccc12` had a TGI greater than 100 µM.

Compound `COc1ccc2c(C)cc(=O)oc2c1OC` returned a TGI greater than 100 µM.

`OCCc1ccsc1-c1sc(-c2cc(CCO)c(-c3sccc3CCO)s2)cc1CCO`: the TGI was 31 µM.

The compound `Cc1cc2c3c(nc4ccccc42)C(=O)c2ccccc2-c3n1` had a concentration for total growth inhibition (TGI) greater than 100 µM.

On to `O=c1[nH]c(Nc2nc3ccccc3[nH]2)nc(O)c1-c1ccccc1`, for which the total growth inhibition concentration (TGI) is greater than 100 µM.

For `CCOC(=O)c1cn2c(nc1=O)N[C@H]1CCCC[C@@H]12`, the TGI was greater than 100 µM.

With `CC1=NS(=O)(=O)c2ccccc2N1`, the TGI is greater than 100 µM.

`COP(=O)(/C=C/c1cc(C(=O)OCc2ccccc2)n(S(=O)(=O)c2ccccc2)c1)OC` yielded a total growth inhibition concentration (TGI) greater than 100 µM.

Consider `CCN(CCCN(CC)C(=O)Nc1c(C)cccc1C)C(=O)Nc1c(C)cccc1C`, for which the total growth inhibition concentration (TGI) is greater than 100 µM.

In turn, `CSc1nsc(-c2ccccc2)[s+]1` registered a TGI greater than 100 µM.

Consider `Oc1ccc([I+]c2ccccc2)cc1O`, for which the TGI is greater than 100 µM.

In turn, `NC1=NCC(CN2CCOCC2)O1` (stereo unspecified) returned a concentration for total growth inhibition (TGI) greater than 100 µM.

The compound `COc1cccc2c(=O)oc(-c3ccc(C(C)(C)C)cc3)nc12` returned a TGI greater than 100 µM.

A further assay relates to NCI-H23 lung. As to the kind of experiment: DTP human tumour cell line panel, 48 h.
`COc1ccc2c(c1)/C(=C\c1c(Cl)nc3sc(C)cn13)C(=O)N2`: the total growth inhibition concentration (TGI) stood at 18.9 µM.

As to `O=C1c2ccccc2-c2c1c(-c1ccc(F)cc1)nc1ccc3ccccc3c21`, the TGI was greater than 100 µM.

`O=C(/C=C/c1ccc2c(c1)OCO2)CC(=O)C(=O)c1c[nH]c2ccccc12` came in with a TGI greater than 100 µM.

Compound `O=c1[nH]c(=O)n(C2OC(CO)C(O)C2O)c2nc(-c3ccc(-c4ccccc4)cc3)cnc12` (stereo unspecified) came in with a concentration for total growth inhibition (TGI) greater than 100 µM.

`O=C1NCCN1/N=C/c1c(Cl)n(-c2ccccc2)c2ccccc12` showed a TGI of 44.8 µM.

As to `CCCCCCOc1ccc(C(=O)NOC)cc1`, the TGI was greater than 100 µM.

For the compound `CO[C@H]1/C=C(/C)CCC[C@H](C)[C@H](O)[C@@H](C)C(=O)C(C)(C)[C@@H](O)CC(=O)O[C@@H]1/C(C)=C/c1csc(C)n1`, the GI50 is 0.0349 µM and the concentration for total growth inhibition (TGI) was greater than 100 µM.

As for `CC(=O)Nc1nc(C#N)[nH]c1C#N`, the TGI was greater than 100 µM.

`CC1CCC(C(=O)O)(C(Br)C(=O)O)CC1` (stereo unspecified) yielded a TGI greater than 100 µM.

As to `COc1cc(NS(C)(=O)=O)ccc1Nc1cc(C)[nH]c2ccc3nccc3c12`, the TGI is greater than 100 µM.

`CCOC(=O)Cn1c(=O)c2nc(SC)sc2n(-c2ccccc2)c1=O`: the TGI was greater than 100 µM.

`COc1ccc(-c2nc(SCC(=O)N/N=C/c3ccc(N(C)C)cc3)[nH]c2-c2ccc(OC)cc2)cc1` registered a TGI greater than 100 µM.

With `CC1=C[C@@H]2Cc3nc4cc(Cl)ccc4c(N)c3[C@H](C1)C2`, the TGI amounted to 22.3 µM.

With `O=[N+]([O-])C(/C=C(\Cl)n1nnc2ccccc21)=C(/Cl)n1nnc2ccccc21`, the TGI is greater than 100 µM.

Take `c1c[nH]c(-c2ccc(-c3ccc[nH]3)c3nsnc23)c1`: the TGI is 79.6 µM. That is a double-digit micromolar value.

The compound `CS(=O)(=O)OCC(CCl)(CCl)CCl` gave a TGI greater than 100 µM.

The compound `N#Cc1c(-c2ccccc2)/c(=C\Nc2ccc(F)cc2)c(=O)n2c1nc1ccccc12` returned a TGI greater than 100 µM.

Consider `COc1ccc2c(C)cc(=O)oc2c1OC`, for which the concentration for total growth inhibition (TGI) is greater than 100 µM.

`OCCc1ccsc1-c1sc(-c2cc(CCO)c(-c3sccc3CCO)s2)cc1CCO` came in with a concentration for total growth inhibition (TGI) of 41 µM.

`Cc1cc2c3c(nc4ccccc42)C(=O)c2ccccc2-c3n1` had a TGI of 15.9 µM.

As for `O=c1[nH]c(Nc2nc3ccccc3[nH]2)nc(O)c1-c1ccccc1`, the TGI was greater than 100 µM.

`CCOC(=O)c1cn2c(nc1=O)N[C@H]1CCCC[C@@H]12` returned a TGI greater than 100 µM.

In turn, `CC1=NS(=O)(=O)c2ccccc2N1` registered a total growth inhibition concentration (TGI) greater than 100 µM.

Consider `COP(=O)(/C=C/c1cc(C(=O)OCc2ccccc2)n(S(=O)(=O)c2ccccc2)c1)OC`, for which the TGI is greater than 100 µM.

`CCN(CCCN(CC)C(=O)Nc1c(C)cccc1C)C(=O)Nc1c(C)cccc1C` returned a TGI greater than 100 µM.

For `O=C(O)CCC(=O)OC1N=C(c2ccccc2Cl)c2cc([N+](=O)[O-])ccc2NC1=O` (stereo unspecified), the TGI was greater than 100 µM.

Consider `Oc1ccc([I+]c2ccccc2)cc1O`, for which the TGI is greater than 100 µM.

`NC1=NCC(CN2CCOCC2)O1` (stereo unspecified) came in with a TGI greater than 100 µM.

Turning to `COc1cccc2c(=O)oc(-c3ccc(C(C)(C)C)cc3)nc12`, the TGI is greater than 100 µM.

A further assay has as its system MDA-MB-435. As to the kind of experiment: DTP human tumour cell line panel, 48 h.
Compound `COc1ccc2c(c1)/C(=C\c1c(Cl)nc3sc(C)cn13)C(=O)N2` came in with a TGI of 1.43 µM.

`O=C1c2ccccc2-c2c1c(-c1ccc(F)cc1)nc1ccc3ccccc3c21`: the TGI was greater than 100 µM.

On to `O=C(/C=C/c1ccc2c(c1)OCO2)CC(=O)C(=O)c1c[nH]c2ccccc12`, for which the TGI was 68.5 µM.

Regarding `O=c1[nH]c(=O)n(C2OC(CO)C(O)C2O)c2nc(-c3ccc(-c4ccccc4)cc3)cnc12` (stereo unspecified), the total growth inhibition concentration (TGI) was greater than 100 µM.

`O=C1NCCN1/N=C/c1c(Cl)n(-c2ccccc2)c2ccccc12` registered a TGI of 33.1 µM. This lies in the double-digit micromolar range.

On to `CCCCCCOc1ccc(C(=O)NOC)cc1`, for which the TGI is greater than 100 µM.

As to `CC(=O)Nc1nc(C#N)[nH]c1C#N`, the TGI was greater than 100 µM.
